Assay [1] addresses RNA-directed RNA polymerase (Hepacivirus hominis, UniProt O39930). Briefly: Inhibitory concentration against Hepatitis C virus-RNA-dependent RNA polymerase.
For assay [2], the target named is Human immunodeficiency virus type 1 reverse transcriptase (Human immunodeficiency virus 1, UniProt Q72547). Briefly: Inhibitory concentration against HIV-Reverse transcriptase.

Where only a bound is given, the exact number is not on record here.

Our source for the IC50 values is ChEMBL document CHEMBL1144363, “Human immunodeficiency virus-reverse transcriptase inhibition and hepatitis C virus RNA-dependent RNA polymerase inhibition activities of fullerene derivatives” (Bioorg Med Chem Lett, 2005).

One may read the IC50 as the concentration needed to halve the response being measured. Read a low IC50 as inhibition by little substance.

Sequence of RNA-directed RNA polymerase (O39930 whole entry): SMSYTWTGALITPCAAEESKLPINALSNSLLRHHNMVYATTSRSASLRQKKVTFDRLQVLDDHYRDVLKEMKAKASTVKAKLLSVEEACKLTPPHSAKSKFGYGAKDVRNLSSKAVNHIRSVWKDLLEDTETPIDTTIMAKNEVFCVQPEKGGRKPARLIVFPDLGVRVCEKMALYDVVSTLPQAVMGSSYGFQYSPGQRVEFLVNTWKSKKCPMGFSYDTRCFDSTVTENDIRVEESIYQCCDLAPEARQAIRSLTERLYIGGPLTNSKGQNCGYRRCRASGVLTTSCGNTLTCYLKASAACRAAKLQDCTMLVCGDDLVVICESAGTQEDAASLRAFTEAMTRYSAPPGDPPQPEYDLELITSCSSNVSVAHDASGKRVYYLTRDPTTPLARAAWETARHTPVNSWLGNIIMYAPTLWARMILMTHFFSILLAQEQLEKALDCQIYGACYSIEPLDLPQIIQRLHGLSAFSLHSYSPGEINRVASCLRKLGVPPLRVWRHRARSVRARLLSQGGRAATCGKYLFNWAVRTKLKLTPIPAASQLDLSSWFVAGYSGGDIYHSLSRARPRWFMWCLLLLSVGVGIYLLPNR

Turning to `CCCCn1c(=O)c(C2=NS(=O)(=O)c3ccccc3N2)c(O)c2ccccc21`, the IC50 in assay [1] was determined as 100 nM.

On to `C[N+]1(C)C[C@]23c4c5c6c7c8c9c%10c%11c%12c%13c%14c%15c%16c%17c%18c%19c%20c(c2c2c4c4c6c6c8c%10c8c%12c%10c%14c(c%15%19)c%12c%20c2c2c4c6c8c%10c%122)[C@@H]%18[C@H]2c4c6c8c%10c(c4-%17)[C@@H]%16[C@H]%13[C@@]%114C[N+](C)(C)C[C@]%104C=9[C@H]8[C@@H]7C5=C6[C@]23C1`, for which the IC50 turned out to be 310 nM in assay [1] and 1400 nM in assay [2].

Consider `O=C(O)C1(C(=O)O)[C@]23c4c5c6c7c8c9c%10c%11c%12c%13c%14c%15c%16c%17c%18c%19c%20c(c2c2c4c4c6c6c8c%10c8c%12c%10c%14c(c%15%19)c%12c%20c2c2c4c6c8c%10c%122)[C@@H]%18[C@H]2c4c6c8c%10c(c4-%17)[C@@H]%16[C@H]%13[C@@]%114C(C(=O)O)(C(=O)O)[C@]%104C=9[C@H]8[C@@H]7C5=C6[C@@]213`, for which the half-inhibitory concentration (IC50) in assay [1] is 3200 nM; in assay [2], 1200 nM.

Regarding `O=C(O)CN1C[C@@]23C4=C5c6c7c8c9c(c%10c%11c%12c%13c%14c%15c%16c%17c%18c%19c%20c%21c%22c%23c(c6c6c8c8c%24c9c%11c9c(c%16%12)c%17c%11c%19c%12c%21c%23c6c8c%12c%11c9%24)[C@@H]5[C@@H]5C=%22[C@H]6c8c(c-%14c(c4c85)[C@@H]2[C@H]%13%10)[C@H]%15[C@@H]%18[C@@H]%206)[C@]73[C@@H]1C(=O)O`, the figures for the IC50 in assay [1] and in assay [2] were more than 10000 nM and 1000 nM, respectively.

For `CCCCCCCCCC[N@+]1(C)C[C@@]23c4c5c6c7c8c9c%10c%11c%12c%13c%14c%15c%16c%17c%18c%19c%20c%21c(c2c2c4c4c6c9c6c4c4c2c%21c2c%19c(c%18%14)c9c%13c%10c6c9c24)C2=C4c6c(c-%16c9c%10c6[C@H]([C@@H]5C7=C%10[C@]5(C[N+](C)(C)C[C@]8%115)[C@H]9[C@H]%15%12)[C@@]43C1)[C@@H]%17[C@H]2%20`, the IC50 is 1400 nM in assay [1] and 1300 nM in assay [2].

For the compound `C[N+]1(C)C[C@]23c4c5c6c7c8c9c%10c%11c%12c%13c%14c%15c%16c%17c%18c%19c%20c%21c(c2c2c4c4c6c9c6c4c4c2c%21c2c(c%16%20)c%15c9c%13c%10c6c9c24)[C@@H]%19[C@H]2c4c6c9c%10c(c4-%18)[C@@H]%17[C@@H]%14C%12=C%10[C@]4(C[N+](C)(C)C[C@@]8%114)[C@H]9[C@@H]7C5=C6[C@]23C1`, the values for the IC50 in assay [1] and in assay [2] were 310 nM and 1700 nM, respectively.

As to `C[N+]1(C)C[C@@]23C4=C5C6=C7c8c9c%10c%11c%12c%13c%14c%15c%16c%17c%18c%19c%20c%21c%22c%23c%24c%25c%26c%27c(c(c8c8c%10c%13c(c%278)c8c%14c%17c(c%24c%22%18)c%268)[C@@]72C1)[C@H]%25[C@@H]3C=%23[C@@H]4[C@H]%21c1c5c2c3c(c1-%20)[C@H]([C@H]%19%16)[C@@]1(C[N+](C)(C)C[C@]%12%151)C3=C%11[C@H]9[C@H]62`, the IC50 in assay [1] came to 240 nM; in assay [2] it was 1600 nM.
